Results on 4 compounds are retold here after patent publication US20230265151A1, “GIP/GLP1 CO-AGONIST COMPOUNDS” (priority 2020, published 2023).

Where two headings read alike, the source gives them in different places. Where only a bound is given, the exact number is not on record here.

For orientation: Emax means the greatest response seen or fitted, relative to the assay's reference. What is called EC50 is the concentration that produces a half-maximal response.

What all share (format): cell-based
In one assay the target is T1, hGIPR (Homo sapiens, UniProt P48546).
T1 construct: expressed in transfected cells
T1 sequence (P48546 22-466): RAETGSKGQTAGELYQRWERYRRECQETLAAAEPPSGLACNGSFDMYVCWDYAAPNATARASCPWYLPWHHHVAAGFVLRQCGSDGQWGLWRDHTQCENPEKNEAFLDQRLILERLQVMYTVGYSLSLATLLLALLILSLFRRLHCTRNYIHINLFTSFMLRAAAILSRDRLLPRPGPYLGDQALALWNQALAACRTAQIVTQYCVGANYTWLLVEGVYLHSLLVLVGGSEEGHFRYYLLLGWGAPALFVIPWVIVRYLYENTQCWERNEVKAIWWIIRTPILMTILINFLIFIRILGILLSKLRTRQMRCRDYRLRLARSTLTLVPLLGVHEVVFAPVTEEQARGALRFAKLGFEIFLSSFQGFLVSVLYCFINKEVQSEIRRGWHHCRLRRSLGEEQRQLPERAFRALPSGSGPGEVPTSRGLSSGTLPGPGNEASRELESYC
As to the kind of experiment: Functional cAMP formation (HTRF) in HEK-293 clonal cells expressing hGIPR, 0.1% bovine casein, without or with 1.0% human serum albumin. The conditions noted are these: for EC50: cAMP, 0.1% bovine casein (no human serum albumin), geometric mean. A digest of the protocol:
(§1)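 Readings of the HTRF 665/620 nm ratio, which falls as cAMP rises, were converted to nM cAMP using a standard curve after 30 min peptide exposure at 37° C.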

In another assay the target is T2, hGCGR (Homo sapiens, UniProt P47871).
T2 construct: expressed in transfected cells
As to the kind of experiment: Functional cAMP formation (HTRF) in HEK-293 clonal cells expressing hGCGR, 0.1% bovine casein, without or with 1.0% human serum albumin. The method, boiled down: as §1
On the technique in general: Cyclic AMP is a second messenger, typically raised through Gs and lowered through Gi signalling.

For another assay, the target named is hGLP-1R (Homo sapiens, UniProt P43220). As to the kind of experiment: Functional cAMP formation (HTRF) in HEK-293 clonal cells expressing hGLP-1R, 0.1% bovine casein, without or with 1.0% human serum albumin. Also on record: expressed in transfected cells. The conditions noted are these: for Emax: percent of maximal response to GLP-1(7-36)NH2; for EC50: cAMP, 0.1% bovine casein (no human serum albumin), geometric mean. The method, boiled down: as §1

Setting [1] is: hGIPR EC50, nM (SEM, n), 37° C.
Setting [2] is: hGCGR EC50, nM (SEM, n), cAMP, 37° C., 0.1% bovine casein (no human serum albumin), geometric mean.
[3] abbreviates: HEK293, read-out: hGLP-1R Emax, % ± SEM, cAMP, 37° C., 0.1% bovine casein, arithmetic mean.
The mark [4] stands for this setting: hGLP-1R EC50, nM (SEM, n), 37° C.

T2 sequence (P47871 26-477): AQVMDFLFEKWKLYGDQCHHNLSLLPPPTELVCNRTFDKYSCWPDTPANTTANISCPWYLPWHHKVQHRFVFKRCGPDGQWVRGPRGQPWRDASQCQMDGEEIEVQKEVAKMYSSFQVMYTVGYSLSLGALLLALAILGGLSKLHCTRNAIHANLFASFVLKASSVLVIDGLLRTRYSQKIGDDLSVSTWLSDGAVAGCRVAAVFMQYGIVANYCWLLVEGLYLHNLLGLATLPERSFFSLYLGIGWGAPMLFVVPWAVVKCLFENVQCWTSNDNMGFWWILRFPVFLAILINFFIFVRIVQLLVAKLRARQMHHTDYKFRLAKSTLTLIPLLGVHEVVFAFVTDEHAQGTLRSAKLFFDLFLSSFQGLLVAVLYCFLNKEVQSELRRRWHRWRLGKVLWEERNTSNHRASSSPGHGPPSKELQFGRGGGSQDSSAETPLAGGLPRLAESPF
hGLP-1R, sequence (P43220 24-463): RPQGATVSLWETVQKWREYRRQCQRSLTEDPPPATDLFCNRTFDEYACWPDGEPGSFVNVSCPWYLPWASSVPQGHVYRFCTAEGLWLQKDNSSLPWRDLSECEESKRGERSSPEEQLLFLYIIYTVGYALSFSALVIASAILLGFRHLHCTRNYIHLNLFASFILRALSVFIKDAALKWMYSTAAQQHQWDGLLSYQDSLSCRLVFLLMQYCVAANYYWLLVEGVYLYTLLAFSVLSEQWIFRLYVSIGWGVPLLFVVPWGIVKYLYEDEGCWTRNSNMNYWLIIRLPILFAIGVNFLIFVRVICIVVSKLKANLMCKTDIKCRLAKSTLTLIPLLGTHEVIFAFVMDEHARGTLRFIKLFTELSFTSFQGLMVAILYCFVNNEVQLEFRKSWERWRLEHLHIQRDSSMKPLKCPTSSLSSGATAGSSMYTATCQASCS

As to `CC[C@H](C)[C@H](NC(=O)[C@H](CC(C)C)NC(=O)[C@](C)(Cc1ccc(O)cc1)NC(=O)[C@@H](CCC(=O)O)NC(=O)[C@@H](NC(=O)[C@H](Cc1ccccc1)NC(=O)[C@H](CCCCNC(=O)COCCOCCNC(=O)COCCOCCNC(=O)CC[C@H](NC(=O)CCCCCCCCCOc1ccc(C(=O)O)cc1)C(=O)O)NC(=O)C(C)(C)NC(=O)[C@H](CCC(N)=O)NC(=O)[C@H](C)NC(=O)[C@H](CCCCNC(=O)COCCOCCNC(=O)COCCOCCNC(=O)CC[C@H](NC(=O)CCCCCCCCCOc1ccc(C(=O)O)cc1)C(=O)O)NC(=O)[C@H](CCCN)NC(=O)[C@H](CC(=O)O)NC(=O)[C@H](CC(C)C)NC(=O)[C@](C)(CC(C)C)NC(=O)[C@@H](NC(=O)C(C)(C)NC(=O)[C@@H](NC(=O)[C@H](CC(=O)O)NC(=O)[C@H](CO)NC(=O)[C@@H](NC(=O)[C@](C)(Cc1ccccc1F)NC(=O)[C@@H](NC(=O)CNC(=O)[C@H](CCC(=O)O)NC(=O)C(C)(C)NC(=O)[C@@H](N)Cc1ccc(O)cc1)[C@@H](C)O)[C@@H](C)O)C(C)C)[C@@H](C)CC)[C@@H](C)CC)C(=O)N[C@@H](CCC(=O)O)C(=O)NCC(=O)NCC(=O)N1CCC[C@H]1C(=O)N[C@@H](CO)C(=O)N[C@@H](CO)C(=O)NCC(=O)N[C@@H](C)C(=O)N1CCC[C@H]1C(=O)N1CCC[C@H]1C(=O)N1CCC[C@H]1C(=O)N[C@@H](CO)C(N)=O` [Example 319], the Emax on hGIPR (HEK293, read-out: hGIPR Emax, % ± SEM, 0.1% bovine casein and 1.0% human serum albumin, 37° C., percent of maximal response to GIP(1-42)NH2) came out at 92.5%; on hGIPR (HEK293, read-out: hGIPR Emax, % ± SEM, cAMP, 37° C., 0.1% bovine casein, percent of maximal response to GIP(1-42)NH2, arithmetic mean), 98.1%; on hGLP-1R (HEK293, read-out: hGLP-1R Emax, % ± SEM, 0.1% bovine casein and 1.0% human serum albumin, 37° C.) it was 114%; at hGLP-1R (setting [3]), 100%. Besides, the EC50 at hGIPR (setting [1]) is 0.0196 nM; on hGCGR (hGCGR EC50, nM (SEM, n), 0.1% bovine casein and 1.0% human serum albumin, 37° C., geometric mean) it was above 9950 nM; on hGCGR (setting [2]), above 9950 nM; on hGLP-1R (setting [4]) it was 0.18 nM.
Take `CCCCCCCCCCCC(=O)N[C@@H](CCC(=O)NCCOCCOCC(=O)NCCOCCOCC(=O)NCCCC[C@H](NC(=O)[C@H](CO)NC(=O)[C@@H]1CCCN1C(=O)[C@@H]1CCCN1C(=O)[C@@H]1CCCN1C(=O)[C@H](C)NC(=O)CNC(=O)[C@H](CO)NC(=O)[C@H](CO)NC(=O)[C@@H]1CCCN1C(=O)CNC(=O)CNC(=O)[C@H](CCC(=O)O)NC(=O)[C@@H](NC(=O)[C@H](CC(C)C)NC(=O)[C@](C)(Cc1ccc(O)cc1)NC(=O)[C@@H](CCC(=O)O)NC(=O)[C@@H](NC(=O)[C@H](Cc1ccccc1)NC(=O)[C@H](Cc1ccncc1)NC(=O)C(C)(C)NC(=O)[C@H](CCC(N)=O)NC(=O)[C@H](C)NC(=O)[C@H](CCCCNC(=O)COCCOCCNC(=O)COCCOCCNC(=O)CC[C@H](NC(=O)CCCCCCCCCCC)C(=O)O)NC(=O)[C@H](CCCN)NC(=O)[C@H](CC(=O)O)NC(=O)[C@H](CC(C)C)NC(=O)[C@](C)(CC(C)C)NC(=O)[C@@H](NC(=O)C(C)(C)NC(=O)[C@H](Cc1ccncc1)NC(=O)[C@H](CC(=O)O)NC(=O)[C@H](CO)NC(=O)[C@@H](NC(=O)[C@](C)(Cc1ccccc1F)NC(=O)[C@@H](NC(=O)CNC(=O)[C@H](CCC(=O)O)NC(=O)C(C)(C)NC(=O)[C@@H](N)Cc1ccc(O)cc1)[C@@H](C)O)[C@@H](C)O)[C@@H](C)CC)[C@@H](C)CC)[C@@H](C)CC)C(N)=O)C(=O)O` [Example 420]: the Emax on hGIPR (HEK293, cAMP, 37° C., 0.1% bovine casein and 1.0% human serum albumin, percent of maximal response to GIP(1-42)NH2, read-out: hGIPR Emax, % ± SEM) came out at 89.7%; at hGLP-1R (HEK293, cAMP, 37° C., 0.1% bovine casein and 1.0% human serum albumin, read-out: hGLP-1R Emax, % ± SEM), 109%. Besides, the EC50 on hGIPR (37° C., read-out: hGIPR EC50, nM (SEM, n)) was 0.00964 nM; on hGCGR (cAMP, 37° C., 0.1% bovine casein (no human serum albumin), geometric mean, read-out: hGCGR EC50, nM (SEM, n)), above 9950 nM; at hGCGR (cAMP, 37° C., 0.1% bovine casein and 1.0% human serum albumin, geometric mean (SEM, n), read-out: hGCGR EC50, nM (SEM, n)) it was above 9950 nM; at hGLP-1R (37° C., read-out: hGLP-1R EC50, nM (SEM, n)), 0.123 nM.
As to `CC[C@H](C)[C@H](NC(=O)[C@H](CC(C)C)NC(=O)[C@](C)(Cc1ccc(O)cc1)NC(=O)[C@@H](CCC(=O)O)NC(=O)[C@@H](NC(=O)[C@H](Cc1ccccc1)NC(=O)[C@H](CCC(=O)O)NC(=O)C1(NC(=O)[C@H](CCC(N)=O)NC(=O)[C@H](C)NC(=O)[C@H](CCCCNC(=O)COCCOCCNC(=O)COCCOCCNC(=O)CC[C@H](NC(=O)CCCCCCCCCCCCC(=O)O)C(=O)O)NC(=O)[C@H](CCCN)NC(=O)[C@H](CC(=O)O)NC(=O)[C@H](CC(C)C)NC(=O)[C@](C)(CC(C)C)NC(=O)[C@@H](NC(=O)[C@H](CO)NC(=O)[C@H](Cc2ccncc2)NC(=O)[C@H](CC(=O)O)NC(=O)[C@H](CO)NC(=O)[C@@H](NC(=O)[C@](C)(Cc2ccccc2F)NC(=O)[C@@H](NC(=O)CNC(=O)[C@H](CCC(=O)O)NC(=O)C(C)(C)NC(=O)[C@@H](N)Cc2ccc(O)cc2)[C@@H](C)O)[C@@H](C)O)[C@@H](C)CC)CCCC1)[C@@H](C)CC)C(=O)N[C@@H](CCC(=O)O)C(=O)NCC(=O)NCC(=O)N[C@@H](CCCCNC(=O)COCCOCCNC(=O)COCCOCCNC(=O)CC[C@H](NC(=O)CCCCCCCCCCCCC(=O)O)C(=O)O)C(=O)N[C@@H](CO)C(=O)N[C@@H](CO)C(=O)NCC(=O)N[C@@H](C)C(=O)N1CCC[C@H]1C(=O)N1CCC[C@H]1C(=O)N1CCC[C@H]1C(=O)N[C@@H](CO)C(N)=O` [Example 170], the Emax at hGIPR (HEK293, percent of maximal response to GIP(1-42)NH2, 37° C., 0.1% bovine casein, arithmetic mean, read-out: hGIPR Emax, % ± SEM) was found to be 93.9%. Also, the EC50 at hGCGR (cAMP, incubated at 37° C., 0.1% bovine casein (no human serum albumin), geometric mean, read-out: hGCGR EC50, nM (SEM, n)) was above 9950 nM; at hGLP-1R (incubated at 37° C., read-out: hGLP-1R EC50, nM (SEM, n)) it was 1.03 nM.
Regarding `CC[C@H](C)[C@H](NC(=O)[C@H](CCCN)NC(=O)[C@H](CC(=O)O)NC(=O)[C@H](CC(C)C)NC(=O)[C@](C)(CC(C)C)NC(=O)[C@@H](NC(=O)C(C)(C)NC(=O)[C@@H](NC(=O)[C@H](CC(=O)O)NC(=O)[C@H](CO)NC(=O)[C@@H](NC(=O)[C@](C)(Cc1ccccc1F)NC(=O)[C@@H](NC(=O)CNC(=O)[C@H](CCC(=O)O)NC(=O)C(C)(C)NC(=O)[C@@H](N)Cc1ccc(O)cc1)[C@@H](C)O)[C@@H](C)O)C(C)C)[C@@H](C)CC)C(=O)N[C@@H](C)C(=O)N[C@@H](CCC(N)=O)C(=O)NC(C)(C)C(=O)N[C@@H](CCC(=O)O)C(=O)N[C@@H](Cc1ccccc1)C(=O)N[C@H](C(=O)N[C@@H](CCCCNC(=O)COCCOCCNC(=O)CC[C@H](NC(=O)CCCCCCCCCOc1ccc(C(=O)O)cc1)C(=O)O)C(=O)N[C@@](C)(Cc1ccc(O)cc1)C(=O)N[C@@H](CC(C)C)C(=O)N[C@H](C(=O)N[C@@H](CCCCNC(=O)COCCOCCNC(=O)CC[C@H](NC(=O)CCCCCCCCCOc1ccc(C(=O)O)cc1)C(=O)O)C(=O)NCC(=O)NCC(=O)N1CCC[C@H]1C(=O)N[C@@H](CO)C(=O)N[C@@H](CO)C(=O)NCC(=O)N[C@@H](C)C(=O)N1CCC[C@H]1C(=O)N1CCC[C@H]1C(=O)N1CCC[C@H]1C(=O)N[C@@H](CO)C(N)=O)[C@@H](C)CC)[C@@H](C)CC` [Example 381], the maximum response (Emax) at hGIPR (HEK293, read-out: hGIPR Emax, % ± SEM, cAMP, 37° C., 0.1% bovine casein and 1.0% human serum albumin, percent of maximal response to GIP(1-42)NH2) came out at 90.3%; on hGLP-1R (setting [3]), 105%. Moreover, the EC50 is 0.0784 nM at hGIPR (setting [1]); above 9950 nM on hGCGR (setting [2]); above 9950 nM on hGCGR (hGCGR EC50, nM (SEM, n), cAMP, 37° C., 0.1% bovine casein and 1.0% human serum albumin, geometric mean (SEM, n)); 1.1 nM on hGLP-1R (setting [4]).
